According to article PMC2362091, “Expression of V1A and GRP receptors leads to cellular transformation and increased sensitivity to substance-P analogue-induced growth inhibition” (British Journal of Cancer, 2005):
Converted amounts (≈) assume the structure as drawn. Where two headings read alike, the source gives them in different places. Square brackets hold non-standard residues; d marks the D form. Peptide text beside a SMILES is read from it. NMeF = CN[C@@H](Cc1ccccc1)C(=O)O

Columns and labels:
[1] = system: untransfected CHO-K1 cells; assay: Intracellular Ca2+ (FURA-2), untransfected cells; format: cell-based; settings: data not shown
[2] = system: ERK phosphorylation in untransfected CHO cells; assay: ERK phosphorylation (Western blot), untransfected CHO cells; format: cell-based; settings: data not shown
Description: (§1) Quiescent cell cultures in six-well plates were treated as described in figure legends and lysed at 4°C in 0.25 ml lysis buffer containing; 25 mM HEPES pH 7.4, 0.3 M NaCl, 1.5 mM MgCl2, 0.2 mM EDTA, 0.5% Triton X-100, 20 mM β-glycerphosphate, 0.5 mM dithiothreitol, 1 mM sodium orthovanadate and protease inhibitors (Boehringer Mannheim, Sussex, UK; prepared as per the manufacturer's instructions). Lysates were clarified by centrifugation, equilibrated for protein using BCA protein assay reagent (Perbio Science, Cheshire, UK) and denatured by boiling (5 min) in SDS–PAGE loading buffer. In all, 20 μl lysate/lane was resolved on 12% SDS–PAGE gels and electroblotted onto nitrocellulose membranes. Membranes were blocked in 3% bovine serum albumin in PBS containing 0.05% Tween-20. ERK1/2 phosphorylation was determined using 1 : 1000 dilution of the primary antibody followed by the appropriate HRP-labelled goat IgG (DAKO, UK) diluted 1 : 5000. Bands were visualized using enhanced chemiluminescence (ECL plus, Amersham) and quantified using a phosphor imager (Storm).
In this study, ERK activation was measured in CHO cells expressing GRP or V1A receptors in response to the appropriate neuropeptide or substance-P analogue. Activation was estimated in immunoblots from stimulated lysates using a phosphorylation state-specific antibody. […]

CHO-WT cells = assay: Chemosensitivity, MTT assay, wild-type cells; format: cell-based; settings: 48 h, absence of serum; read-out: IC50, inhibition of proliferation (MTT)
Description: (§2) In some assays, MTT (3-[4,5-dimethylthiazol-2yl]-2,5-diphenyl tetrazolium bromide) formazan production (Sigma) was used to measure proliferation as per the manufacturer's instructions.
(§3) Figure 4 Effect of neuropeptide on chemosensitivity. Wild-type CHO-K1 cells (left) and cells expressing the V1A (middle) or GRP (right) receptor were plated at a density of 1e^4 cells per well of a 96-well tissue culture plate in DMEM with 10% FCS and incubated overnight 37°C. […] Cell viability was assessed by MTT staining.

CHO-GRPr cells = assay: Chemosensitivity, MTT assay, GRPr cells; format: cell-based
Description: as §2, §3

CHO-V1Ar cells = assay: cells; format: cell-based
Description: as §2, §3

[3] = system: GRP receptor expressing CHO-K1 cells; assay: Clonogenic assay in semisolid media, GRP receptor expressing cells; format: cell-based; settings: 30 μM, 0.3% agar, 1% FCS, 8 days
Description: (§4) CHO-K1 (2x10^4) viable cells were mixed with DMEM containing 0.3% agarose in the presence or absence of mediators and layered over a solid base of 0.5% agarose in DMEM in 35 mm plastic dishes. The cultures were incubated at 37°C for 1–10 days, and then stained with 1 mg ml^−1 nitro-blue tetrazolium (NBT, Sigma) overnight at 37°C. Colonies from 10 separate fields were counted using a microscope with a × 4 objective. Cloning efficiency is calculated as the percentage of original number of seeded cells forming colonies of >6 cells.
(§5) Figure 3 Effect of SP-D and SP-G on clonal growth. (A) Cells were grown in 0.3% agar with 1% FCS for 8 days in the presence or absence (open bar) of 30 μM SP-D (black bar) or SP-G (grey bar). […] Aggregation assay. (B) Wild-type, GRPR-transfected and V1AR-transfected CHO-K1 cells were plated into low adhesion tissue culture plates on top of a layer of 0.5% agar in DMEM containing 5% FCS at a density of 5 × 10^4 ml^−1 in the presence of varying concentrations of SP-G. Cells were maintained in culture for 7 days, briefly trypsinised to dissagregate clusters and viable cells counted by propidium iodide exclusion.

[4] = system: V1A receptor expressing CHO-K1 cells; assay: Clonogenic assay in semisolid media, V1A receptor expressing cells; format: cell-based; settings: 30 μM, 0.3% agar, 1% FCS, 8 days
Description: as §4, §5

[5] = system: vector control CHO-K1 cells; assay: Clonogenic assay in semisolid media, vector control cells; format: cell-based; settings: 30 μM, 0.3% agar, 1% FCS, 8 days
Description: as §4, §5

[6] = system: GRPR-transfected CHO-K1 cells; assay: Aggregation assay (anchorage-independent growth), GRPR-transfected cells; format: cell-based; settings: low adhesion plates, 5% FCS, 7 days, viable cells counted
Description: (§6) CHO-K1 cells were suspended in DMEM in the presence of 5% FCS and seeded into low adhesion tissue culture plates on top of a layer (1 ml) of 0.5% agar. […] Cells were maintained in culture for 7 days briefly trypsinised to disaggregate clusters and viable cells counted.
as §5

[7] = system: V1AR-transfected CHO-K1 cells; assay: Aggregation assay (anchorage-independent growth), V1AR-transfected cells; format: cell-based; settings: low adhesion plates, 5% FCS, 7 days, viable cells counted
Description: as §6, §5

human GRP receptor = target: T1, human GRP receptor (Homo sapiens, UniProt P30550); assay: Intracellular Ca2+ (FURA-2), CHO-GRP cells; format: cell-based; settings: in absence of GRP
T1 construct: CHO-K1 cells were transfected with full-length human GRP receptor or human V1A receptor; expressed in transfected cells
T1 sequence (P30550 whole entry): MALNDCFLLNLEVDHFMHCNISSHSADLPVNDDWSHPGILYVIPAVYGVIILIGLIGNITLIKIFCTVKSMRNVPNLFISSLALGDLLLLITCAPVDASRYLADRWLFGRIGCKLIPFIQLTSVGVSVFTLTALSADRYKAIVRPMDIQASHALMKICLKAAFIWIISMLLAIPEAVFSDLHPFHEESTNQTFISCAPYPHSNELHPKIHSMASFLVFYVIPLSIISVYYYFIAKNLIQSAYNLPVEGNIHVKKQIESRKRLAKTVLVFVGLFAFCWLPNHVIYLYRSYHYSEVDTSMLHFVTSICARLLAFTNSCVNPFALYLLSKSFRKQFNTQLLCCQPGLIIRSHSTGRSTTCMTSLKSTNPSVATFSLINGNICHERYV
Description: (§8) Cells were trypsinised and loaded with fura-2-tetraacetoxymethylester AME (FURA-2-AM, 1 μM) in calcium-free Hank's balanced salt solution for 10 min at 37°C. The cells were pelleted and resuspended in 2 ml of Hank's balanced salt solution containing 1.8 mM CaCl2. Fluorescence was recorded in a fluorescence spectrophotometer (Perkin Elmer). Alternate dual wavelength excitation at 380 and 410 nm allowed ratiometric analysis of bound and unbound FURA-2AM when measured at 505 nm. [Ca^2+] was calculated according to the equation [Ca^2+]=K(F−Fmin)/(Fmax−F), where F is the ratio of the unknown sample, Fmax is the ratio after the addition of 0.1% Triton X-100 and Fmin is the ratio after Ca^2+ chelation with 10 mM EGTA. K is the dissociation constant for Fura-2, which is 224 nM.
(§9) Quiescent GRP (A, B) or V1A (C, D) receptor expressing CHO cells were incubated with FURA-2AM for 15 min at 37°C and ratiometric fluorescence monitored at 37°C. […] Concentration–response curves to vasopressin were carried out in control cells and in cells treated with 1 or 10 μM SP-D (C) or SP-G (D). Results are expressed as % maximum control response to neuropeptide and represent the mean±s.e.m. of four experiments.

human V1A receptor [8] = target: T2, human V1A receptor (Homo sapiens, UniProt P37288); assay: Intracellular Ca2+ (FURA-2), V1A-expressing CHO cells; format: cell-based; settings: in absence of AVP
T2 construct: CHO-K1 cells were transfected with full-length human GRP receptor or human V1A receptor; expressed in transfected cells
T2 sequence (P37288 whole entry): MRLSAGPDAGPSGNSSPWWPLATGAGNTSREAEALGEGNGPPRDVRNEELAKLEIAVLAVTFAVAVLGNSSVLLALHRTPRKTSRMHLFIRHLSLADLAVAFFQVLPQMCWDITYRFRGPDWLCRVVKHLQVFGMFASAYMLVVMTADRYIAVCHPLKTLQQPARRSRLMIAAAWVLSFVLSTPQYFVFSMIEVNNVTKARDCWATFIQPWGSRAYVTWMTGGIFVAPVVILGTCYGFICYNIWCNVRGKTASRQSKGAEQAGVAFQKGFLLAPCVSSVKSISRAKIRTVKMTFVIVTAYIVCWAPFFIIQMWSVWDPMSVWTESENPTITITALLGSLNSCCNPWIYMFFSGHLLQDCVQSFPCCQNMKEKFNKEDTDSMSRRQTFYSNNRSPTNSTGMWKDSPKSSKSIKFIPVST
Description: as §8, §9

[9] = system: ERK phosphorylation in GRP receptor expressing CHO cells; assay: ERK phosphorylation (Western blot), GRP receptor expressing CHO cells; format: cell-based; settings: for maximal stimulation of ERK: at 50 μM
Description: as §1
(§7) In this study, ERK activation was measured in CHO cells expressing GRP or V1A receptors in response to the appropriate neuropeptide or substance-P analogue. Activation was estimated in immunoblots from stimulated lysates using a phosphorylation state-specific antibody. Lysates from quiesced cells stimulated for […] with either neuropeptide or SP-D or SP-G were separated on 12% gels and blotted for pERK2 or total ERK1/2.
Figure 6 (A) ERK phosphorylation by neuropeptides. Quiescent GRP (left) or V1A (right) receptor expressing CHO cells were stimulated for 5 min with neuropeptide at the indicated concentrations. […] Representative Western blots are shown. Bar graphs represent the mean optical density (mean±s.e.m.) of four separate experiments. (B) ERK phosphorylation by substance-P analogues. Quiescent GRP (left) or V1A (right) receptor expressing CHO cells were stimulated for 5 min with SP-D (filled bars) or SP-G (open bars) at the indicated concentrations. […] Representative Western blots are shown. Bar graphs represent the mean optical density (mean±s.e.m.) of four separate experiments.
Figure 7 Effect of pertussis toxin (PTX) on ERK phosphorylation. Confluent cultures of GRP (left) or V1A (right) receptor expressing CHO cells were quiesced overnight in the presence or absence of 100 ng ml^−1 pertussis toxin. Cells were stimulated for 5 min with 30 μM SP-D or SP-G or 1 nM neuropeptide as indicated. […] Representative Western blots are shown.

[10] = system: ERK phosphorylation in V1A receptor expressing CHO cells; assay: ERK phosphorylation (Western blot), V1A receptor expressing CHO cells; format: cell-based; settings: for stimulation of ERK: at 50 μM
Description: as §1, §7
Figure 6 (A) ERK phosphorylation by neuropeptides. Quiescent GRP (left) or V1A (right) receptor expressing CHO cells were stimulated for 5 min with neuropeptide at the indicated concentrations. […] Representative Western blots are shown. Bar graphs represent the mean optical density (mean±s.e.m.) of four separate experiments. (B) ERK phosphorylation by substance-P analogues. Quiescent GRP (left) or V1A (right) receptor expressing CHO cells were stimulated for 5 min with SP-D (filled bars) or SP-G (open bars) at the indicated concentrations. […] Representative Western blots are shown. […]

human V1A receptor [11] = target: T2, human V1A receptor; assay: Receptor binding, [125I]-AVP, CHO-K1-V1Ar cells; settings: V1A over GRP receptor, from Ki
Description: CHO-K1 cells were maintained in DMEM supplemented with 10% (v v^−1) foetal bovine serum (heat-inactivated at 57°C for 1 h) 50 U ml^−1 penicillin, 50 μg ml^−1 streptomycin and 5 μg ml^−1 L-glutamine in a humidified atmosphere of 5% CO2:95% air at 37°C. CHO-K1 cells were transfected with full-length human GRP receptor or human V1A receptor using lipofectamine plus (Invitrogen) as per the manufacturer's instructions. Stable cell cultures were maintained in the presence of 400 μg ml^−1 G418-sulphate.
The binding parameters Kd and Bmax were calculated from competition binding isotherms with unlabelled ligand ([DeBlasi et al, 1989]).

[12] = set-up: method as in Clive et al, 2001; settings: at therapeutic plasma concentrations; ref Clive et al, 2001; cited from earlier work
[13] = 48 h, absence of serum, read-out: IC50, inhibition of proliferation (MTT)
[14] = 48 h serum-free, no neuropeptide, read-out: IC50 (MTT), control cells of neuropeptide protection experiment

Row | SMILES | colony formation [3] | colony formation [4] | cloning efficiency [5] | cell growth in aggregation assay [6] | cell growth in aggregation assay [7] | change in [Ca2+]i on their own (human GRP receptor) | direct mobilisation of intracellular calcium (human V1A receptor [8]) | maximal stimulation of ERK [9] | stimulation of ERK [10] | also measured
1 | CSCC[C@H](NC(=O)[C@H](CC(C)C)NC(=O)[C@H](Cc1c[nH]cn1)NC(=O)CNC(=O)[C@@H](NC(=O)[C@H](C)NC(=O)[C@H](Cc1c[nH]c2ccccc12)NC(=O)[C@H](Cc1c[nH]cn1)NC(=O)[C@H](CC(N)=O)NC(=O)CNC(=O)[C@H](CCCNC(=N)N)NC(=O)[C@@H]1CCCN1C(=O)[C@H](Cc1ccc(O)cc1)NC(=O)[C@H](CCSC)NC(=O)[C@H](CCCCN)NC(=O)[C@@H](NC(=O)[C@H](CC(C)C)NC(=O)[C@@H](NC(=O)[C@@H](NC(=O)CNC(=O)CNC(=O)CNC(=O)[C@H](C)NC(=O)[C@@H]1CCCN1C(=O)[C@H](CC(C)C)NC(=O)[C@@H]1CCCN1C(=O)[C@@H](N)C(C)C)[C@@H](C)O)C(C)C)[C@@H](C)O)C(C)C)C(N)=O [GRP, gastrin-releasing peptide] | – | – | – | – | – | – | – | – | – | change in [Ca2+]i [1]: neither GRP nor AVP produced a significant change; stimulation of ERK phosphorylation [2]: Neither AVP nor GRP produced any stimulation
2 | COc1cc([C@@H]2c3cc4c(cc3[C@@H](O[C@@H]3O[C@@H]5CO[C@@H](C)O[C@H]5[C@H](O)[C@H]3O)[C@H]3COC(=O)[C@H]23)OCO4)cc(OC)c1O [etoposide] | – | – | – | – | – | – | – | – | – | IC50 (CHO-WT cells): 12.4 ± 3.1 µg/mL (≈ 21.1 µM); IC50 (CHO-GRPr cells; [13]): 8.1 ± 2.3 µg/mL (≈ 13.8 µM); IC50 (CHO-GRPr cells; [14]): 6.3 µg/mL (≈ 10.7 µM); IC50 (CHO-V1Ar cells; [13]): 14.2 ± 4 µg/mL (≈ 24.1 µM); IC50 (CHO-V1Ar cells; [14]): 13 µg/mL (≈ 22.1 µM)
3 | CC(C)C[C@H](NC(=O)[C@H](CC(C)C)NC(=O)[C@@H](Cc1c[nH]c2ccccc12)NC(=O)[C@H](Cc1ccccc1)NC(=O)[C@@H](Cc1c[nH]c2ccccc12)NC(=O)[C@H](CCC(N)=O)NC(=O)[C@@H](Cc1ccccc1)NC(=O)[C@@H]1CCCN1C(=O)[C@H](CCCCN)NC(=O)[C@@H]1CCCN1C(=O)[C@H](N)CCCNC(=N)N)C(N)=O [SP-D, [D-Arg^1,D-Phe^5,D-Trp^7,9,Leu^11]-substance-P] (H-[dR]PKP[dF]Q[dW]F[dW]LL-NH2; N-terminus and C-terminus assumed) | significantly reduced colony formation | significantly reduced colony formation | no effect | able to inhibit cell growth | able to inhibit cell growth | no change | did not mobilise intracellular calcium directly | 2.8 fold | 2 fold | concentration at which activation of ERK was evident [9]: 3 µM; effect of pertussis toxin pretreatment on ERK activation by the substance ([9]; 100 ng ml^−1 PTX overnight, bombesin, 10 μM SP-D, 1 μM LPA): completely abolished
4 | CSCC[C@H](NC(=O)[C@H](CC(C)C)NC(=O)[C@@H](Cc1c[nH]c2ccccc12)NC(=O)[C@H](Cc1ccccc1)N(C)C(=O)[C@@H](Cc1c[nH]c2ccccc12)NC(=O)[C@@H](N)CCCNC(=N)N)C(N)=O [SP-G, [Arg^6,D-Trp^7,9,N^mePhe^8]-substance-P (6–11)] (H-R[dW][NMeF][dW]LM-NH2; N-terminus and C-terminus assumed) | significantly reduced colony formation | significantly reduced colony formation | no effect | able to inhibit cell growth | able to inhibit cell growth | no change | did not mobilise intracellular calcium directly | 2.1 fold | 4.3 fold | selectivity for the V1A receptor (human V1A receptor [11]): six; effect of pertussis toxin pretreatment on ERK activation by the substance ([10]; 100 ng ml^−1 PTX overnight, AVP, 20 μM SP-G, 1 μM LPA): completely inhibited; toxicity in phase I clinical trial [12]: minimal toxicity
5 | NC(=O)CC[C@@H]1NC(=O)[C@H](Cc2ccccc2)NC(=O)[C@H](Cc2ccc(O)cc2)NC(=O)[C@@H](N)CSSC[C@@H](C(=O)N2CCC[C@H]2C(=O)N[C@@H](CCCN=C(N)N)C(=O)NCC(N)=O)NC(=O)[C@H](CC(N)=O)NC1=O [AVP, arginine vasopressin] | – | – | – | – | – | – | – | – | – | increase in MTT accumulation compared to control cells (CHO-V1Ar cells; 50 nM neuropeptide, at 40 μg ml^−1 etoposide, 48 h): 92%
